What was measured:
[1] = test system: Salmonella typhimurium TA98; conditions: TA98, without S-9 mix; J2 40, NA49 200, positive controls 1-2 μg/plate
Experimental: To perform the Ames test of J2 and NA49, the number of revertant colonies was counted on each compound-treated plate at the maximum concentration at which the compound was soluble and nontoxic to the S. typhimurium tester strains (Supplementary Material S1). The ratio of the number of revertant colonies in the treated plate to colonies in the vehicle plate. […] For the hERG K^+ channel binding assay of J2 and NA49, the inhibitory activity against the hERG K^+ channel and its ligand was measured using a red fluorescent hERG channel ligand tracer. The final activity was assessed as a decrease in the degree of fluorescence polarization. […]
The test was conducted with maximum concentration at which the compound was
soluble and nontoxic to the S. typhimurium tester strains. #Factor = No. of revertant colonies
of treated plate colonies of vehicle control plate. […]

NCI-H460 cells [2] = assay: Cell death by PI staining / flow cytometry, NCI-H460; type: cell-based, human; conditions: NCI-H460; cisplatin 3 µM, Gef 30 µM, alone
Experimental: (§1) Cells were plated in 6-well culture plates at a density of 1 × 10^5 cells/well. Compounds were applied to the cells immediately after seeding. When cells were harvested, cells were washed once with 1× phosphate-buffered saline (PBS), dissociated using Trypsin-EDTA, and centrifuged at 13,000 rpm for 3 min at 4 °C. Next, 1 mL of 1× PBS was added to wash the pellet again. Finally, 1 mL of 1× PBS and 1 μg/mL of propidium iodide (PI) were added to each polystyrene round-bottom tube. Flow cytometric analysis was performed using a FACS flow cytometer (BD Bioscience). To measure cell death, 10^4 cells were counted, and PI-stained cells were analyzed. FACS analysis in accordance with the manufacturer’s instruction. […]
(§2) Table S1. CI values of NSCLC cell lines.
(§3) Cell line Combination drug NA 10 µM NA 20 µM
(§4) CI values were calculated from the data of percent inhibition of cell death by PI staining. Each CI
(§5) value was analyzed by CompuSyn software. […]

A549 cells = assay: Cell death by PI staining / flow cytometry, A549; type: cell-based, human; conditions: cisplatin 3 µM, Gef 30 µM, alone
Experimental: as §1, §2, §3, §4, §5

NCI-H460 cells [3] = assay: MTT viability assay, NCI-H460; type: cell-based, human; conditions: 24 h
Experimental: The human NSCLC cell lines of NCI-H460, A549, HCC827, PC9, NCI-H1650, and NCI-H1975 were obtained from the American Type Culture Collection (Rockville, MD, USA). Cells were cultured in RPMI 1640 medium containing 10% FBS, 2 mmol/L L-glutamine, and 100 units/mL of penicillin and streptomycin and maintained at 37 °C in a humidified incubator containing 5% CO2.
Cell viability against gefitinib-, cisplatin-, and NA49-induced toxicity was determined using an MTT (Amersham Pharmacia Biotech) assay in 96-well plates. […] Next, cells were incubated with 100 µL of 5 mg/mL 3-(4,5-dimethylthiazol-2-yl)-2,5-diphenyltetrazolium bromide (Sigma Aldrich, M5655) for 2 h. After the MTT mixture was removed, 100 µL of DMSO was added to each well, and absorbance at 540 nm was measured using an ELISA plate reader (TECAN, Twinfinite PRO).

CYP450 3A4 = CYP450 3A4 (Homo sapiens, UniProt P08684); assay: CYP450 enzyme inhibition, 3A4; conditions: 10 μM
CYP450 2C19 = CYP450 2C19 (Homo sapiens, UniProt P33261); assay: CYP450 enzyme inhibition, 2C19; type: in vitro ADME; conditions: 10 μM
Experimental: (§6) Permeability was evaluated with a parallel artificial membrane permeability (PAMPA) assay using an artificially generated lipid-infused membrane.

CYP2C9 = CYP2C9 (Homo sapiens, UniProt P11712); assay: CYP450 enzyme inhibition, 2C9; type: in vitro ADME; conditions: 10 μM
Experimental: as §6

CYP1A2 = molecular target: T1, CYP1A2 (Homo sapiens, UniProt P05177); assay: in vitro
T1 sequence (P05177 1-516): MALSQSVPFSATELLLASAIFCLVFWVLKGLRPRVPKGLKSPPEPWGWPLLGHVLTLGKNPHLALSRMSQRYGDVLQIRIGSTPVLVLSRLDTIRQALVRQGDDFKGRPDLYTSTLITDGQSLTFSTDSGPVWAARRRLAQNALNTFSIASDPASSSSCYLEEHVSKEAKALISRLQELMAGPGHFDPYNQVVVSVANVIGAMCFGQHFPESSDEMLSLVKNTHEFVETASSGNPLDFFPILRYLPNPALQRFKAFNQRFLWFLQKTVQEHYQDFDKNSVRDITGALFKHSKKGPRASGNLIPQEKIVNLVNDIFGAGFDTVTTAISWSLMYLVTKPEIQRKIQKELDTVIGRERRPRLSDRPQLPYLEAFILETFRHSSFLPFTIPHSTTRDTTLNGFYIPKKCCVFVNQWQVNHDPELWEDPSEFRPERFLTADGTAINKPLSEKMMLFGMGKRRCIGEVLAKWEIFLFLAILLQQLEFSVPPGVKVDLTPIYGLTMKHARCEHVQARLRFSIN

CYP450 2D6 = CYP450 2D6 (Homo sapiens, UniProt P10635); assay: CYP450 enzyme inhibition, 2D6; type: in vitro ADME; conditions: 10 μM
Chain of CYP450 2D6 (P10635 whole entry): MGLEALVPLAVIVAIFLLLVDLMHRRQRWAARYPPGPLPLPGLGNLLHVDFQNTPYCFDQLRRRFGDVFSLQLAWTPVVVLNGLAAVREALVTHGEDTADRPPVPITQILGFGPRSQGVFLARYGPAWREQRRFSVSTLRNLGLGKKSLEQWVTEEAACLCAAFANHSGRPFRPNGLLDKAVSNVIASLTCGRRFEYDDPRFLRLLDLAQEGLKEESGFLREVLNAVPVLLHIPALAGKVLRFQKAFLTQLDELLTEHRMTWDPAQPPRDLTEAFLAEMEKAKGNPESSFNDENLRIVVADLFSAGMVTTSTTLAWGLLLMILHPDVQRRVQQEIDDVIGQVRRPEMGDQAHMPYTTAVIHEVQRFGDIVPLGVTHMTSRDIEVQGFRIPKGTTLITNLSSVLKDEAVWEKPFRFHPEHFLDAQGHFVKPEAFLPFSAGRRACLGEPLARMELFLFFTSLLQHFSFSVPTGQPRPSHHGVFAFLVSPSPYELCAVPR

Chain of CYP450 2C19 (P33261 whole entry): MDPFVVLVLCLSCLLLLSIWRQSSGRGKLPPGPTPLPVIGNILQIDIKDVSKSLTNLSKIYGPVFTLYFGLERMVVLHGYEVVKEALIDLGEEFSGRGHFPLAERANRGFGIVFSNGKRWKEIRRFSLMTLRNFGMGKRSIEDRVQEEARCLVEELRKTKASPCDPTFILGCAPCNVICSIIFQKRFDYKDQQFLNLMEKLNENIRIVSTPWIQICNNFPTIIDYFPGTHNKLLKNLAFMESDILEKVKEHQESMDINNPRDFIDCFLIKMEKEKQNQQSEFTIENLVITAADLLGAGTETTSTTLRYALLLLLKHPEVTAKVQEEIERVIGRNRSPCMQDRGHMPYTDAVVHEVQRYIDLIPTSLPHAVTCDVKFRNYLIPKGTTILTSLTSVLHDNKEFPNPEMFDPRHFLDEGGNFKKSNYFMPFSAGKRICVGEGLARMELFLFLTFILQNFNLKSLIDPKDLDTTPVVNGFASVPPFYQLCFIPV
Chain of CYP2C9 (P11712 whole entry): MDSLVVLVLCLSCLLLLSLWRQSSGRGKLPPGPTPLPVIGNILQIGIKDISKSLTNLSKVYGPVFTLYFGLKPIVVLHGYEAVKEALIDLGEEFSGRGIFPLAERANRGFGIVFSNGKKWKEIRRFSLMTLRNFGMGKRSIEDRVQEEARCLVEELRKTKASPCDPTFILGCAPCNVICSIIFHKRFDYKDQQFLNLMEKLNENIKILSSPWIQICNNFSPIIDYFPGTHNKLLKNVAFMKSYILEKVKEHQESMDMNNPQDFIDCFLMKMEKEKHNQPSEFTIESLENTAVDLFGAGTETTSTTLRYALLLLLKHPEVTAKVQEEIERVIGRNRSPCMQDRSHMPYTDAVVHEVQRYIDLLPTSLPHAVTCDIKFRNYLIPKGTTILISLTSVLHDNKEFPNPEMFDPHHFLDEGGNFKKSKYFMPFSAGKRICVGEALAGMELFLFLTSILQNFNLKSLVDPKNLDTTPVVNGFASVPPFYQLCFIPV
Chain of CYP450 3A4 (P08684 whole entry): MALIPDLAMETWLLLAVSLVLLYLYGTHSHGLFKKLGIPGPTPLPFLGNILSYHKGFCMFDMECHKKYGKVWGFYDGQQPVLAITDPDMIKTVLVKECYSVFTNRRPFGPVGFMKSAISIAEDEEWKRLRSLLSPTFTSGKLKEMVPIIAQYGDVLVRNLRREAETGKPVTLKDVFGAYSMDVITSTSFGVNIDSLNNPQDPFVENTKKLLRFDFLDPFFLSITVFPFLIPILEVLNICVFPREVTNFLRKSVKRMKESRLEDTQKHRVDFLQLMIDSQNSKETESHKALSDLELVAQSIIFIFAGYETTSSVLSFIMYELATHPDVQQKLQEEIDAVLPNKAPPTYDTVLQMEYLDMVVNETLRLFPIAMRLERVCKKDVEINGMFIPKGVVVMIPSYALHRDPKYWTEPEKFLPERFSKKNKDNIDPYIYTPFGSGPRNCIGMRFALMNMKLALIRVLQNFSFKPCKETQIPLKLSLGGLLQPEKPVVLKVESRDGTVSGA

## O=[N+]([O-])c1ccc2c(c1)Cc1ccccc1-2 [2-nitrofluorene, reference compound]
[1]
  Factor (revertant colonies of treated plate/vehicle control plate): 28.9
  Revertant colonies/plate (Mean ± S.D.): 462 ± 24 colonies/plate

## N.N.[Cl][Pt][Cl] [Cisplatin, cisplatin, reference compound]
NCI-H460 cells [2]
  Cell death: less than 30%
A549 cells
  Cell death: less than 30%
NCI-H460 cells [3]
  IC50: 11.7 µM

## COc1cc2ncnc(Nc3ccc(F)c(Cl)c3)c2cc1OCCCN1CCOCC1 [Gef, Gefitinib, reference compound]
NCI-H460 cells [2]
  Cell death: less than 30%
A549 cells
  Cell death: less than 30%

## OCc1ncc2n1-c1ccc(Cl)cc1C(c1ccccc1F)=NC2 [OH-midazolam, reference compound]
CYP450 3A4
  % inhibition of CYP450 3A4, positive control: 92.5%

## COc1ccc2nc([S+]([O-])Cc3ncc(CO)c(OC)c3C)[nH]c2c1 (centres unmarked) [OH-omeprazole, reference compound]
CYP450 2C19
  % inhibition of CYP450 2C19, positive control: 93.2%

## CCCCNC(=O)NS(=O)(=O)c1ccc(CO)cc1 [OH-tolbutamide, reference compound]
CYP2C9
  % inhibition of CYP450 2C9, positive control: 91.7%

## CC(=O)Nc1ccc(O)cc1 [acetaminophen]
CYP1A2
  inhibition at 10 μM: 92.4%

## CN1CC[C@@]23CCCC[C@@H]2[C@@H]1Cc1ccc(O)cc13 [dextrophan, reference compound]
CYP450 2D6
  % inhibition of CYP450 2D6, positive control: 94.0%

## [N-]=[N+]=[N-].[Na+] [sodium azide, reference compound]
[1]
  Factor (revertant colonies of treated plate/vehicle control plate): 4.1
  Revertant colonies/plate (Mean ± S.D.): 441 ± 16 colonies/plate

Source: publication PMC8145107 (Pharmaceutics, 2021)
